The values that follow come from US11135228B2, “Cysteinyl-proresolving mediators that promote resolution of infection and organ protection” (THE BRIGHAM AND WOMEN'S HOSPITAL, priority 2014, dated 2021).

Assay [1] concerns Human neutrophils. Kind of assay: Human neutrophil phagocytosis of fluorescently labeled E. coli. The assay is classed as cell-based. As to conditions: 10 pM-100 nM, 15 min, then E. coli 45 min. The method, then:
(§1) Leukocyte phagocytosis: Macrophages were prepared from peripheral blood mononuclear cells (PBMC) purchased from Children's Hospital Blood Bank, Boston, and phagocytosis was assessed as in (11). Briefly, macrophages (5×10^4 cells,/well) were incubated with SCI (10 pM-100 nM), SCII (10 pM-100 nM), MaR1 (10 pM-100 nM), or vehicle (0.1% EtOH in DPBS) for 15 min at 37° C., then fluorescent labeled apoptotic cells were added and cells incubated 45 min at 37° C. Extracellular fluorescence was quenched using Trypan blue (1:15 dilution) and phagocytosis assessed using an M3 SpectraMax plate reader. In select experiments, macrophages (5×10^4 cells/well) or neutrophils (1×10^5 cells/well) were obtained from human healthy volunteers' peripheral blood as in (11) in accordance with Partners Human Research Committee Protocol (#1999P001297), and incubated with H2DCFDA (5 μM, 30 min, 37° C.), then with SCI (10 pM-100 nM), SCI (10 pM-100 nM) or vehicle (0.1% EtOH in DPBS, 15 min, 37° C.) and E. coli (1:50 leukocytes to E. coli, 45 min, 37° C.) Intracellular reactive oxygen species were determined by measuring fluorescence using an M3 SpectraMax plate reader. […]

Assay [2] relates to Planaria (Dugesia japonica). Briefly: Planaria tissue regeneration after surgical injury (head resection), tissue regeneration index. As to conditions: for T50: either SCI or SCII alone, concentration dependent, vehicle ~5 days; for tissue regeneration / head regrowth (in words): surgically injured planaria vs vehicle. The format is in vivo. The method, then:
Planaria regeneration: Planaria (Dugesia japonica; Dj) were kept in water (Poland Spring) at 18° C. All animals were starved for at least 7 days prior to experiments. Tissue regeneration was assessed as in (12). Briefly, planaria were subject to head resection post-occularly (surgical Injury). The posterior portions of the planaria were then placed in spring water containing 0.01% EtOH, SPE-C isolate fraction 2 from resolving exudates or milk at the indicated dilutions, U0126 (Extracellular signal-regulated kinases (ERK) inhibitor; Cell Signaling Technology; 25 μM (16)), U0126 plus resolving exudates SPE-C isolates fraction 2, SCI (100 nM), SCII (100 nM), lipoxygenase inhibitor (baicalein, 10 μM) or lipoxygenase inhibitor plus SCI and SCII (100 nM). The extent of tissue regeneration during a 6-day period for D. japonica was determined using captured images of the regenerating blastemas at regular intervals (24 h). These images were analyzed using ImageJ software. A tissue regeneration index (TRI) was employed that took into consideration the size of the regenerated tissue total area (A) and the post-ocular width W of the animal, where TRI=A/W. In determined experiments, planaria were injured and incubated in water, containing 10^8CFU E. coli (serotype O6:K2:H1) or with E. coli plus SCI and SCII (100 nM), and tissue regeneration indices assessed as described above.
Planaria regeneration: Planaria (Dugesia japonica) were kept in water (Poland. Spring; Nestlé Waters North America, Stamford, Conn., USA) at 18° C. All animals were starved for at least 7 d before the experiments. Tissue regeneration was assessed as described previously (10). In brief, planaria were subjected to head resection postoccularly (surgical injury). The posterior portions of the planaria were then placed in spring water containing 0.01% EtOH, 16-glutathionyl, 17-hydroxyl-4Z,7Z,10,12,14,19Z-docosahexaenoic acid plus 16-cysteinylglycinyl, 7-hydroxyl-4Z,7Z,10,12,14,19Z-docosahexaenoic acid (50 nM; each) or 8-gutathionyl, 7,17-dihydroxyl-4Z9,11,13Z,15E,19Z-docosahexaenoic acid plus 8-cysteinylglycinyl, 7,17-dihydroxyl-4Z,9,11,13Z,15E,19Z-docosahexaenoic acid (50 nM, each). The extent of tissue regeneration during a 6-d period was determined using captured images of the regenerating blastemas at regular intervals (24 h). These images were analyzed using ImageJ software (NIH, Bethesda, Md., USA). A tissue regeneration index (TRI) was used that took into consideration the size of the regenerated tissue total area (A) and the postocular width (W), where TRI=A/W (10).

For assay [3], the system named is Human macrophages. Kind of assay: Human macrophage intracellular reactive oxygen species (H2DCFDA). The format is cell-based. As to conditions: 10 pM-100 nM, 15 min, then E. coli 45 min. The method, then: as §1
Assay [4] concerns Human macrophages. Kind of assay: Human macrophage phagocytosis of fluorescently labeled E. coli. The format is cell-based. As to conditions: 10 pM-100 nM, 15 min, then E. coli 45 min. The method, then:
Leukocyte phagocytosis: Macrophages were prepared from peripheral blood mononuclear cells (PBMC) purchased from Children's Hospital Blood Bank, Boston, and phagocytosis was assessed as in (11). Briefly, macrophages (5×10^4 cells,/well) were incubated with SCI (10 pM-100 nM), SCII (10 pM-100 nM), MaR1 (10 pM-100 nM), or vehicle (0.1% EtOH in DPBS) for 15 min at 37° C., then fluorescent labeled apoptotic cells were added and cells incubated 45 min at 37° C. Extracellular fluorescence was quenched using Trypan blue (1:15 dilution) and phagocytosis assessed using an M3 SpectraMax plate reader. In select experiments, macrophages (5×10^4 cells/well) or neutrophils (1×10^5 cells/well) were obtained from human healthy volunteers' peripheral blood as in (11) in accordance with Partners Human Research Committee Protocol (#1999P001297), and incubated with H2DCFDA (5 μM, 30 min, 37° C.), then with SCI (10 pM-100 nM), SCI (10 pM-100 nM) or vehicle (0.1% EtOH in DPBS, 15 min, 37° C.) and E. coli (1:50 leukocytes to E. coli, 45 min, 37° C.) Intracellular reactive oxygen species were determined by measuring fluorescence using an M3 SpectraMax plate reader. To assess bacterial phagocytosis, macrophages (5×10^4 cells/well) or neutrophils (1×10^5 cells/well) were incubated with SCI (10 pM-100 nM), SCII (10 pM-100 nM) or vehicle (0.1% EtOH in DPBS, 15 min, 37° C.), then incubated with BacLight Green (Molecular Probes) labeled E. coli (1:50 leukocytes to E. coli, 45 min, 37° C.), Extracellular fluorescence was quenched using Trypan blue (1:15 dilution), and phagocytosis assessed using an M3 SpectraMax plate reader.
Macrophage phagocytosis was assessed using fluorescently labeled E. coli (serotype O6:K2;H1) with BacLight Green Bacterial Stain (Life Technologies, Eugene, Oreg., USA). E. coli [2.5×10^6 colony-forming units (CFL)/well] were then added to macrophages previously plated in 96-well plates (40 min at 37° C.) and incubated with 0.1-10 nM concentration of test compounds [15 min at 37° C. (pH 7.45)]. Fluorescence was measured on a SpectraMax M3 plate reader, and results were analyzed using SoftMax Pro.

Assay [5] relates to Human neutrophils. Kind of assay: Human neutrophil intracellular reactive oxygen species (H2DCFDA). As to conditions: 10 pM-100 nM, 15 min, then E. coli 45 min. The format is cell-based. As for the experimental part: as §1

“Also recorded” adds a separate entry of the source.

For the molecule “13-glutathionyl, 14-hydroxy-docosahexaenoic acid [SCI]”, the “neutrophil phagocytosis of E. coli” value in assay [1] is listed as “enhanced; also recorded: Stimulates human”. For the same molecule, in assay [2], the T50 is on record as roughly 3.5 days and the “tissue regeneration / head regrowth (in words)” value was “accelerated head regrowth; also recorded: Promotes tissue”. The “macrophage intracellular reactive oxygen species” value in assay [3] is given as “enhanced; also recorded: Stimulates human”. In addition, the “macrophage phagocytosis of E. coli” value in assay [4] is reported as “enhanced; also recorded: Stimulates human”. Further, the “neutrophil intracellular reactive oxygen species” value in assay [5] was “enhanced; also recorded: Stimulates human”.
Regarding `CCC=CCC=CCC(O)C(C=CC=CC=CCC=CCCC(=O)O)SCC(N)C(=O)NCC(=O)O` (stereo not drawn) [SCII, 13-cysteinylglycinyl, 14-hydroxy-docosahexaenoic acid], the “neutrophil phagocytosis of E. coli” value in assay [1] is listed as “enhanced; also recorded: Stimulates human”. For the same molecule, in assay [2], the T50 is recorded as roughly 3.5 days and the “tissue regeneration / head regrowth (in words)” value is “accelerated head regrowth; also recorded: Promotes tissue”. Besides, the “macrophage intracellular reactive oxygen species” value in assay [3] is on record as “enhanced”. For the same molecule, in assay [4], the “macrophage phagocytosis of E. coli” value was “enhanced; also recorded: Stimulates human”. Further, the “neutrophil intracellular reactive oxygen species” value in assay [5] is on record as “enhanced”.
